The values below come from patent US20090068126A1, “Composition for surface photoprotection” (priority 2004, published 2009).

SMILES strings stand for the structures.

For series [1], the system named is short hair line albino Guinea pigs. Put plainly: Phototoxicity in vivo. The settings on record: 0.1 g %, only in the irradiated area. On the set-up: species or system guinea pig. As for the experimental part:
The tests are accomplished in short hair line albino Guinea pigs (n=4). Twenty-four hours before the application of the test substance to 5% [tween/ethanol/water (1:1:10)], the animals dorsal portion hair are chemically removed. Four application sites are chosen, at random: 2 areas for the test substance and other 2 for the methoxypsoralen phototoxic standard at 0.1 g %, following by the UVA radiation exposition, and a control area is protected from the light. After 24 and 48 hours, the observations are made as for the erythema edema formation (AGÊNCIA NACIONAL DE VIGILÂNCIA SANITÁRIA-Brazil, Guia para avaliaçãa de segurança de produtos cosméticos. 2003.; Freitas, Z. M. F., I Ax, P. A., Dellamora-Ortiz, G. M., Santos, E. P., Gonçalves, J. C. S., 2000, S.T.P Pharma Sciences, 10 (3) 239-242; Dinardo, J. C., Wolf, B. A., Morris, W. E., Tenenbaum, S., Schnetzinger, R. W., 1985, J. Soc. Cosmet. Chem., 36, 425-433).

Series [2] relates to Saccharomyces cerevisiae yeast, wild type strain D273-10B. Put plainly: Phototoxicity test in Saccharomyces cerevisiae yeast (in vitro). It counts as cell-based.
Excerpt: The method applied was used by Freitas (Freitas, Z. M. F., I Ax, P. A., Dellamora-Ortiz, G. M., Santos, E. P., Gonçalves, J. C. S., S.T.P Pharma Sciences, 2000, 10 (3): 239-242) for the Saccharomyces cerevisiae yeast use, wild type strain D273-10B, at room temperature, which dense cell layer is not sensitive to the ultraviolet radiation among 320-390 nm (UVA), besides being innocuous.
The yeast growth was in a YPD medium, constituted by yeast extract (1%), peptone (2%), anhydrous glucose (2%), agar (2%). […] The studied substances were applied in 1 g % concentration in Wharman no. 1 sterile filter paper disks, and fixed on the surface of culture media plates. A S. cerevisiae suspension was prepared in sterilized water (10 mL). Aliquots of 0.2 mL were applied and spread in the culture plates using a glass loop. Two plates were prepared for each sample. After seeding and applying the samples, one plate was allowed to grow under two UVA lamps (320-390 nm). A control plate was grown in the dark. […]

As for `COc1c2occc2cc2ccc(=O)oc12` [8-methoxypsoralen], the erythema degree in series [1] (24 hours) amounted to 1; in series [1] (48 hours) it was 2. Further, the growth inhibition halo entry in series [2] (0.1 g % in ethanol, plates in the light and in the dark) was “presented growth inhibition halo in the light”. In addition, in series [2] (irradiated plate and plate with light absence), the “phototoxic answer in the in vitro phototoxicity test” value is reported as “non-phototoxic”.
